# Test results reported in paper PMC4823997 (Journal of medicinal chemistry, 2015).
# Like-named read-outs stand apart in the source and are kept apart here.
# Key:
# CCR4 = biological target: T1, CCR4 (Homo sapiens, UniProt P51679); test: CCR4 radioligand binding assay; conditions: for selective index CCR4: selectivity for CXCR4 binding versus CCR4
# T1 sequence (P51679 1-360): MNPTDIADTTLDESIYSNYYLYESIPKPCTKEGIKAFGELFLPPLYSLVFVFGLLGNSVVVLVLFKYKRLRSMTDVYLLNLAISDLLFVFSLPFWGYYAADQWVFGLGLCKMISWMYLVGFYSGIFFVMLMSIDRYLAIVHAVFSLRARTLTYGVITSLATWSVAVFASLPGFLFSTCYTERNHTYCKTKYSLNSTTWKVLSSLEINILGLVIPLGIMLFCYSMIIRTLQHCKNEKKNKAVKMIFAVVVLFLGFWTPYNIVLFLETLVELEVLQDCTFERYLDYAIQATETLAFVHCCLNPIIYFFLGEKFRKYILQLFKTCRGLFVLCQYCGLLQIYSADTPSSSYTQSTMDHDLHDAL
# HIV-1 = conditions: 0 to 20 nM
# CCR2 = CCR2 (Homo sapiens, UniProt P41597); test: CCR2 radioligand binding assay; conditions: for selective index CCR2: selectivity for CXCR4 binding versus CCR2
# CCR5 = CCR5 (Homo sapiens, UniProt P51681); test: CCR5 radioligand binding assay; conditions: for selective index CCR5: selectivity for CXCR4 binding versus CCR5
# CXCR7 = CXCR7 (Homo sapiens, UniProt P25106); assay type: cell-based
# hCXCR4 = hCXCR4 (Homo sapiens, UniProt P61073); test: Radioligand [125I]SDF-1α binding to hCXCR4-transfected HEK293 membrane
# TZM-bl cells = test: Cytotoxicity assay; assay type: cell-based
# [1] = tested on: CCRF-CEM cells that express endogenous human CXCR4; conditions: read-out: IC50 to block SDF-1α-induced CEM migration, 10 nM SDF-1, 2.5 h
# CXCR2 = biological target: T2, CXCR2 (Homo sapiens, UniProt P25025); test: CXCR2 radioligand binding assay; conditions: for selective index CXCR2: selectivity for CXCR4 binding versus CXCR2
# T2 sequence (P25025 1-360): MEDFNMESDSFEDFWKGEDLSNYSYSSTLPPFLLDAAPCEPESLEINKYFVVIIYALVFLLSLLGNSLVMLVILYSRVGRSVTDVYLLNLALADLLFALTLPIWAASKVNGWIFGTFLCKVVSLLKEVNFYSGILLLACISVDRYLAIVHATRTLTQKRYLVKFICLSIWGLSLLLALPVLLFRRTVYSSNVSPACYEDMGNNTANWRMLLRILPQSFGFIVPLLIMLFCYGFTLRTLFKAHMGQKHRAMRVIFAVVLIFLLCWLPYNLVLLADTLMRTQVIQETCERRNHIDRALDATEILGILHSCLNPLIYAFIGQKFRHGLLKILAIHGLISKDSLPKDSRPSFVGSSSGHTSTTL
# CEM cells = test: Cytotoxicity assay; assay type: cell-based, human
# HIV-1 IIIB = test: Luciferase activity assay of HIV-1 infectivity in TZM-bl cells; assay type: cell-based; conditions: read-out: Anti-HIV EC50; TZM-bl cells, HIV-1 IIIB, M.O.I. 1
# Cytotoxicity assay [2] = assay type: cell-based; conditions: human, TZM-bl cells
# Cytotoxicity assay [3] = assay type: cell-based, human; conditions: human, CEM cells (T-lymphoblast leukemia)
# Chain of CCR2 (P41597 whole entry, species assumed): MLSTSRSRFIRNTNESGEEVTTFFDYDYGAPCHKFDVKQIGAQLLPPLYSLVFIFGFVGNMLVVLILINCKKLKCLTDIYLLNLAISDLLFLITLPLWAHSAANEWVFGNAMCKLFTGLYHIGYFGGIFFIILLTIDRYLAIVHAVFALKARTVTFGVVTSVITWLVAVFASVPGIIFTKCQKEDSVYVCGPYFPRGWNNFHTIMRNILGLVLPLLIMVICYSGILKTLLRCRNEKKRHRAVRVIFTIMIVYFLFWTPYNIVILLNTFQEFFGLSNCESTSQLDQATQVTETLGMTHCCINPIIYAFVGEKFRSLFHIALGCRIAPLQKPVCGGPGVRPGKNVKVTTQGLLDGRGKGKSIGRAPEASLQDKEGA
# Chain of hCXCR4 (P61073 whole entry): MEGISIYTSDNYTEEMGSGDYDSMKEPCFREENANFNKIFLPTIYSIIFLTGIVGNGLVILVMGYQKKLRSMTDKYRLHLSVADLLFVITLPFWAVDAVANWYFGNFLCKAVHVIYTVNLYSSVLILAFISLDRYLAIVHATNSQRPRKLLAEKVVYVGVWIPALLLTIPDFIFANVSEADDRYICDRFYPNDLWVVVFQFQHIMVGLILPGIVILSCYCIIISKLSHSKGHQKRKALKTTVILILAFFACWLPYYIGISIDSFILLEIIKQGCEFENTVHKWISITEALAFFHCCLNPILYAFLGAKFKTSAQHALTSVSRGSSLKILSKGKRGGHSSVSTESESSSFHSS
# Chain of CCR5 (P51681 whole entry, species assumed): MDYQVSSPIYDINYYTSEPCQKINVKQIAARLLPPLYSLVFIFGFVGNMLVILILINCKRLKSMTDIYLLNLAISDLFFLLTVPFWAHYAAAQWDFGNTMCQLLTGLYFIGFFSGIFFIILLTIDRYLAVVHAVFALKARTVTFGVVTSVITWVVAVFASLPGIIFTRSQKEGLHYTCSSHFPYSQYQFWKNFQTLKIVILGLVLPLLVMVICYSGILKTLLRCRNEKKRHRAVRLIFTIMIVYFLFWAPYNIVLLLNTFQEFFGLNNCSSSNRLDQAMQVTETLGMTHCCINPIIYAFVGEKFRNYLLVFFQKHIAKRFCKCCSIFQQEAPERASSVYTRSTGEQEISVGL
# Chain of CXCR7 (P25106 whole entry): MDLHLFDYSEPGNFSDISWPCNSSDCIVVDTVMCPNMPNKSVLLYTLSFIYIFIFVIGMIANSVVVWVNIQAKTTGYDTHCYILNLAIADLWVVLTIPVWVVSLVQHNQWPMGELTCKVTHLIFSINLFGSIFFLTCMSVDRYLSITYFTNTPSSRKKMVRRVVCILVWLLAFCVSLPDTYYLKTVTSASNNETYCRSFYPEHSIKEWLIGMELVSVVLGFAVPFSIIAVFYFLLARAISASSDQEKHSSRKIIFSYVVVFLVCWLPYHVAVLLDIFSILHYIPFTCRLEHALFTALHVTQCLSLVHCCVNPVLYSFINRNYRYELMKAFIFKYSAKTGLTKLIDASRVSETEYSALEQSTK
compound,measurement,setting,value
"c1nc2c(NCc3ccc(CCNCCCNC4CCCCC4)cc3)nc(N3CCNCC3)nc2[nH]1 [Compound 24, N-Cyclohexyl-N′-(2-{4-[(2-piperazin-1-yl-9H-purin-6-ylami-no)-methyl]-phenyl}-ethyl)-propane-1,3-diamine]",inhibition (%) CCR4,CCR4; at 10 μM,11%
same,IC50,CCR4; read-out: IC50 CCR4,> 10 µM
same,selective index CCR4,CCR4,>609
same,"anti-HIV activity, time of addition",HIV-1; added 3 h after HIV-1 infection,significantly reduced
same,"anti-HIV activity, time of addition",HIV-1; added 3 h before or simultaneously with HIV-1 infection,maintained its potent anti-HIV activity
same,inhibition (%) CCR2,CCR2; at 10 μM,10%
same,IC50,CCR2; read-out: IC50 CCR2,> 10 µM
same,selective index CCR2,CCR2,>609
same,inhibition (%) CCR5,CCR5; at 10 μM,15%
same,IC50,CCR5; read-out: IC50 CCR5,> 10 µM
same,selective index CCR5,CCR5,>609
same,functional selectivity over CXCR4-dependent HIV entry inhibition,CXCR7; CXCR7 β-arrestin assay versus HIV entry inhibition,> 1960 fold
same,antagonism of SDF-1α binding to CXCR7 or triggering of β-arrestin recruitment,CXCR7; even at a 40-fold higher SDF-1α concentration,did not antagonize
same,inhibition (%) CXCR4,hCXCR4; at 10 μM,100%
same,fold increase in CXCR4 binding affinity compared to AMD3100,hCXCR4; relative to AMD3100,13 fold
same,fold increase in CXCR4 binding affinity compared to compound 4,hCXCR4; relative to compound 4,2.2 fold
same,Selective Index CC50/EC50 TZM-bl,TZM-bl cells; CC50 (TZM-bl) / anti-HIV EC50,>98039
same,CC50,"TZM-bl cells; read-out: Cytotoxicity CC50 TZM-bl, TZM-bl cells, 72 h",> 50 µM
same,IC50,[1],0.0031 µM
same,inhibition (%) CXCR2,CXCR2; at 10 μM,16%
same,IC50,CXCR2; read-out: IC50 CXCR2,> 10 µM
same,selective index CXCR2,CXCR2,>609
same,Selective Index CC50/EC50 CEM,CEM cells; CC50 (CEM) / anti-HIV EC50,>98039
same,CC50,"CEM cells; read-out: Cytotoxicity CC50 CEM, CEM cells, 72 h",> 50 µM
same,EC50,HIV-1 IIIB,0.00051 ± 2e-05 µM
"c1cc(CNCCCNC2CCCCC2)cc(CNc2nc(N3CCNCC3)nc3[nH]cnc23)c1 [Compound 25, N-Cyclohexyl-N′-{3-[(2-piperazin-1-yl-9H-purin-6-ylamino)-methyl]-benzyl}-propane-1,3-diamine]",IC50,CCR4,> 10 µM
same,inhibition at 10 µM,CCR4; read-out: inhibition (%) CCR4,0%
same,selective index CCR4,CCR4,>2380
same,IC50,CCR2,> 10 µM
same,inhibition at 10 µM,CCR2; read-out: inhibition (%) CCR2,2%
same,selective index CCR2,CCR2,>2380
same,IC50,CCR5,> 10 µM
same,inhibition at 10 µM,CCR5; read-out: inhibition (%) CCR5,14%
same,selective index CCR5,CCR5,>2380
same,inhibition at 10 µM,hCXCR4; read-out: inhibition (%) CXCR4,100%
same,fold increase in CXCR4 binding affinity compared to compound 24,hCXCR4; relative to compound 24,4 fold
same,CC50 at 72 h,Cytotoxicity assay [2],> 50 µM
same,selectivity ratio at 72 h,Cytotoxicity assay [2],> 83300
same,IC50,CXCR2,> 10 µM
same,inhibition at 10 µM,CXCR2; read-out: inhibition (%) CXCR2,12%
same,selective index CXCR2,CXCR2,>2380
same,CC50 at 72 h,Cytotoxicity assay [3],> 50 µM
same,selectivity ratio at 72 h,Cytotoxicity assay [3],> 83300
same,EC50,HIV-1 IIIB,0.00061 ± 0.00027 µM
